From patent US20190224278A1, “PRODUCING METHOD OF ANTIMICROBIAL PEPTIDE WITH ENHANCED ADHESION AND USES THEREOF” (Intelligent Synthetic Biology Center, priority 2018, published 2019)
In brackets after ≈: the same amount, converted by molar mass. Non-standard residues stand in square brackets, D forms with d. Residues, ends and D or L forms follow the SMILES beside them. No end group written: not given here. Dopa = N[C@@H](Cc1ccc(O)c(O)c1)C(=O)O

These molecules were tested on E. coli (assay: not given). Details: 18 h.
Format: cell-based, Escherichia coli
Protocol: In order to confirm the antimicrobial activity of the adhesive antimicrobial peptides prepared in Experimental Example 1-1, the minimal inhibitory concentration (MIC) which inhibits the growth of E. coli was identified by using a method disclosed in Nature Protocols. 2008; 3(2):163-175. Briefly, a culture medium in which a single colony had been grown for 16 hours was subcultured and grown until OD600 reached 0.4 to 0.6, which corresponds to logarithmic growth. Thereafter, the number of cells was calculated according to the OD values, and the number of cells was set at 10^6 cell/mL. When a Mueller-Hinton Broth (MHB) was loaded to a polypropylene 96-well plate, 90 μL was added to the first row of the plate and 100 μL was added to the control wells, and 50 μL was added to the remaining wells. Thereafter, the peptide solution was prepared at a concentration of […], and 10 μL thereof was added to each well of the first row. The peptide solution was mixed with the medium using a multi-pipette, and then 50 μL was transferred to the second row (B). At this time, the peptide was diluted to half concentration, and the peptide was transferred up to the seventh row by the same method so that the peptide (64 μM to 1 μM) was dissolved in the medium. 10^6 cell/mL of Escherichia coli, which had been prepared previously, was added thereto, and then the plate was cultured for 18 hours. Thus, the final concentration range of the peptide used in the experiment became 32 μM to 0.5 μM. After culturing for 18 hours, the OD values were measured using a microplate reader (Tecan i-control 200 pro), and the MIC values were identified.

Q: CC[C@H](C)[C@H](NC(=O)CNC(=O)[C@H](CCCCN)NC(=O)[C@H](CCCCN)NC(=O)[C@H](CCC(N)=O)NC(=O)[C@H](CC(C)C)NC(=O)[C@H](CCCCN)NC(=O)[C@H](CC(C)C)NC(=O)[C@H](CC(C)C)NC(=O)[C@H](CCCCN)NC(=O)[C@H](CCCCN)NC(=O)[C@H](CC(C)C)NC(=O)[C@H](CC(C)C)NC(=O)[C@H](CCCCN)NC(=O)[C@H](CCSC)NC(=O)[C@H](C)NC(=O)[C@H](CCCCN)NC(=O)[C@@H]1CCCN1C(=O)[C@H](C)N)C(=O)NCC(=O)NCC(=O)NCC(=O)NCC(=O)N[C@@H](CO)C(=O)NCC(=O)NCC(=O)NCC(=O)NCC(=O)N[C@@H](CO)C(=O)N[C@@H](Cc1ccc(O)c(O)c1)C(=O)O [NKC-(G4S)2-DOPA1] (HELM PEPTIDE1{A.P.K.A.M.K.L.L.K.K.L.L.K.L.Q.K.K.G.I.G.G.G.G.S.G.G.G.G.S.[O=C(O)[C@H](Cc1ccc(O)c(O)c1)N[*:1]]}$$$$V2.0; N-terminus and C-terminus assumed) was tested. Which MIC did it give?
A: The MIC was 8 µM (≈ 23.7 µg/mL).

Q: CC[C@H](C)[C@H](NC(=O)CNC(=O)[C@H](CCCCN)NC(=O)[C@H](CCCCN)NC(=O)[C@H](CCC(N)=O)NC(=O)[C@H](CC(C)C)NC(=O)[C@H](CCCCN)NC(=O)[C@H](CC(C)C)NC(=O)[C@H](CC(C)C)NC(=O)[C@H](CCCCN)NC(=O)[C@H](CCCCN)NC(=O)[C@H](CC(C)C)NC(=O)[C@H](CC(C)C)NC(=O)[C@H](CCCCN)NC(=O)[C@H](CCSC)NC(=O)[C@H](C)NC(=O)[C@H](CCCCN)NC(=O)[C@@H]1CCCN1C(=O)[C@H](C)N)C(=O)NCC(=O)NCC(=O)NCC(=O)NCC(=O)N[C@@H](CO)C(=O)NCC(=O)NCC(=O)NCC(=O)NCC(=O)N[C@@H](CO)C(=O)N[C@@H](Cc1ccc(O)c(O)c1)C(=O)N[C@@H](Cc1ccc(O)c(O)c1)C(=O)N[C@@H](Cc1ccc(O)c(O)c1)C(=O)O [NKC-(G4S)2-DOPA3] (H-APKAMKLLKKLLKLQKKGIGGGGSGGGGS[Dopa][Dopa][Dopa]-OH; N-terminus and C-terminus assumed) was tested. Which MIC did it give?
A: Its MIC is 8 µM (≈ 26.5 µg/mL).

Q: How did the MIC turn out when CC[C@H](C)[C@H](NC(=O)CNC(=O)[C@H](CCCCN)NC(=O)[C@H](CCCCN)NC(=O)[C@H](CCC(N)=O)NC(=O)[C@H](CC(C)C)NC(=O)[C@H](CCCCN)NC(=O)[C@H](CC(C)C)NC(=O)[C@H](CC(C)C)NC(=O)[C@H](CCCCN)NC(=O)[C@H](CCCCN)NC(=O)[C@H](CC(C)C)NC(=O)[C@H](CC(C)C)NC(=O)[C@H](CCCCN)NC(=O)[C@H](CCSC)NC(=O)[C@H](C)NC(=O)[C@H](CCCCN)NC(=O)[C@@H]1CCCN1C(=O)[C@H](C)N)C(=O)NCC(=O)NCC(=O)NCC(=O)NCC(=O)N[C@@H](CO)C(=O)NCC(=O)NCC(=O)NCC(=O)NCC(=O)N[C@@H](CO)C(=O)N[C@@H](Cc1ccc(O)c(O)c1)C(=O)N[C@@H](Cc1ccc(O)c(O)c1)C(=O)N[C@@H](Cc1ccc(O)c(O)c1)C(=O)N[C@@H](Cc1ccc(O)c(O)c1)C(=O)N[C@@H](Cc1ccc(O)c(O)c1)C(=O)O [NKC-(G4S)2-DOPA5] (H-APKAMKLLKKLLKLQKKGIGGGGSGGGGS[Dopa][Dopa][Dopa][Dopa][Dopa]-OH) was run?
A: Its MIC is 8 µM (≈ 29.4 µg/mL).

Q: For CC[C@H](C)[C@H](NC(=O)CNC(=O)[C@H](CCCCN)NC(=O)[C@H](CCCCN)NC(=O)[C@H](CCC(N)=O)NC(=O)[C@H](CC(C)C)NC(=O)[C@H](CCCCN)NC(=O)[C@H](CC(C)C)NC(=O)[C@H](CC(C)C)NC(=O)[C@H](CCCCN)NC(=O)[C@H](CCCCN)NC(=O)[C@H](CC(C)C)NC(=O)[C@H](CC(C)C)NC(=O)[C@H](CCCCN)NC(=O)[C@H](CCSC)NC(=O)[C@H](C)NC(=O)[C@H](CCCCN)NC(=O)[C@@H]1CCCN1C(=O)[C@H](C)N)C(=O)NCC(=O)NCC(=O)NCC(=O)NCC(=O)N[C@@H](CO)C(=O)NCC(=O)NCC(=O)NCC(=O)NCC(=O)N[C@@H](CO)C(=O)N[C@@H](Cc1ccc(O)c(O)c1)C(=O)N[C@@H](Cc1ccc(O)c(O)c1)C(=O)N[C@@H](Cc1ccc(O)c(O)c1)C(=O)N[C@@H](Cc1ccc(O)c(O)c1)C(=O)N[C@@H](Cc1ccc(O)c(O)c1)C(=O)N[C@@H](Cc1ccc(O)c(O)c1)C(=O)N[C@@H](Cc1ccc(O)c(O)c1)C(=O)O [NKC-(G4S)2-DOPA7] (H-APKAMKLLKKLLKLQKKGIGGGGSGGGGS[Dopa][Dopa][Dopa][Dopa][Dopa][Dopa][Dopa]-OH; N-terminus and C-terminus assumed), which MIC is on record?
A: The MIC was 16 µM (≈ 64.6 µg/mL).

Q: How did the MIC turn out when APKAMKLLKKLLKLQKKGI [NKC] was run?
A: Its MIC is 1 µM.

These molecules were tested on E. coli (assay: Antimicrobial activity of the coated surface (modified ISO 22196 / colony counting assay)). Details: coated on polystyrene at 25, 50 and 100 μM, E. coli cultured 24 hours.
Format: cell-based, Escherichia coli
Protocol: In order to confirm the antimicrobial activity in the state where the antimicrobial peptides are coated, the experiment was carried out by an ISO 22196 method in which some steps were changed. Based on the results of Experimental Example 2-1 above, the experiment on the antimicrobial activity was carried out by only using the NKCs to which 3, 5, and 7 DOPA moieties were conjugated (i.e., NKC-L-O3, NKC-L-O5, NKC-L-O7, respectively). Each of NKC-L-O3, NKC-L-O5, and NKC-L-O7 was coated on a polystyrene surface at different concentrations of 25 μM, 50 μM, and 100 μM, and then E. coli in logarithmic phase (10^6 cell/mL) was cultured on the coated surface for 24 hours. After the culture, the culture medium was diluted to a certain concentration and smeared on a plate, and the CFU values were confirmed after 16 hours. The E. coli death level, calculated by comparing the above CFU values with CFU values of the uncoated surface, is represented using the following equation.
Antimicrobial Activity=(1−CFU of Surface of Sample/CFU of Control)×100
In order to measure the antimicrobial activity of NKC-L-O5 (100 μM) according to coating time, a colony counting assay was carried out. […] The plate was cultured at 37° C. for 16 hours, and then the colonies were counted.

Q: For CC[C@H](C)[C@H](NC(=O)CNC(=O)[C@H](CCCCN)NC(=O)[C@H](CCCCN)NC(=O)[C@H](CCC(N)=O)NC(=O)[C@H](CC(C)C)NC(=O)[C@H](CCCCN)NC(=O)[C@H](CC(C)C)NC(=O)[C@H](CC(C)C)NC(=O)[C@H](CCCCN)NC(=O)[C@H](CCCCN)NC(=O)[C@H](CC(C)C)NC(=O)[C@H](CC(C)C)NC(=O)[C@H](CCCCN)NC(=O)[C@H](CCSC)NC(=O)[C@H](C)NC(=O)[C@H](CCCCN)NC(=O)[C@@H]1CCCN1C(=O)[C@H](C)N)C(=O)NCC(=O)NCC(=O)NCC(=O)NCC(=O)N[C@@H](CO)C(=O)NCC(=O)NCC(=O)NCC(=O)NCC(=O)N[C@@H](CO)C(=O)N[C@@H](Cc1ccc(O)c(O)c1)C(=O)N[C@@H](Cc1ccc(O)c(O)c1)C(=O)N[C@@H](Cc1ccc(O)c(O)c1)C(=O)O [NKC-(G4S)2-DOPA3] (H-APKAMKLLKKLLKLQKKGIGGGGSGGGGS[Dopa][Dopa][Dopa]-OH; N-terminus and C-terminus assumed), which “antimicrobial activity in coated state, dependence” value is on record?
A: Its value is “antimicrobial activity dependent on the number of DOPA moieties and the concentration of the NKC”.
